Ten molecules from PubChem BioAssay (NCI) can be followed below.

SMILES strings stand for the structures.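 Exposure lasted 48 hours, with cells grown in 96-well plates and compounds tested at five concentrations. Abbreviation: GI50, concentration required for 50% inhibition of growth. The concentration for full growth arrest is given as TGI.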

Among the test systems are NCI-H460 lung; CCRF-CEM leukemia; SF-268 CNS; LOX IMVI melanoma; HOP-62 NSCLC; A498 renal; ACHN renal; NCI-H23 lung; HT29 colon; NCI-H522 lung.
Holding throughout (test): NCI anticancer screen, dose series, 48 h

Turning to `COc1ccc(S(=O)(=O)N(Cc2ccc3c(n2)C=CC(C)(C)O3)C2CCC2)cc1OC`, the GI50 is 0.0196 µM in the assay with NCI-H460 lung; below 0.01 µM with CCRF-CEM leukemia; below 0.01 µM in the assay on SF-268 CNS; below 0.01 µM with LOX IMVI melanoma; below 0.01 µM in the assay on HOP-62 NSCLC; below 0.01 µM in the assay with A498 renal. The GI50 in the assay on ACHN renal was below 0.01 µM; in the assay on NCI-H23 lung, 0.0145 µM; in the assay on HT29 colon, 0.021 µM; with NCI-H522 lung it was below 0.01 µM. The TGI in the assay with CCRF-CEM leukemia was determined as 0.0922 µM; in the assay with SF-268 CNS it was 1.13 µM; in the assay with LOX IMVI melanoma, 0.176 µM; in the assay with HOP-62 NSCLC, 1.29 µM; with A498 renal it was 0.0431 µM; with ACHN renal, 0.0734 µM. The figures for the TGI in the assay with NCI-H23 lung, with HT29 colon and with NCI-H522 lung were 1.05 µM, above 36.6 µM and 0.0768 µM, respectively.
With `CC(C)CC(N)C(=O)O` (centres undefined), the TGI in the assay with NCI-H460 lung, in the assay with CCRF-CEM leukemia, in the assay on SF-268 CNS, in the assay with LOX IMVI melanoma, in the assay with HOP-62 NSCLC and in the assay with A498 renal was above 100 µM throughout. Besides, the TGI in the assay with ACHN renal, with NCI-H23 lung, with HT29 colon and with NCI-H522 lung was above 100 µM in each case.
For the molecule `O=C(O)c1cc(N=Nc2ccc([As](=O)(O)O)cc2)ccc1O`, the TGI in the assay on NCI-H460 lung, in the assay with CCRF-CEM leukemia, in the assay with SF-268 CNS, in the assay on LOX IMVI melanoma, with HOP-62 NSCLC and with A498 renal was above 100 µM each time. Besides, the TGI with ACHN renal, in the assay with NCI-H23 lung, with HT29 colon and with NCI-H522 lung was above 100 µM throughout.
With `Cc1ccc(C(=O)/C=C/c2ccccc2O)c(C)c1`, the TGI in the assay on NCI-H460 lung, with CCRF-CEM leukemia, with SF-268 CNS, in the assay with LOX IMVI melanoma, in the assay with HOP-62 NSCLC and in the assay with A498 renal was above 100 µM throughout. Further, the TGI with ACHN renal is above 100 µM; in the assay on NCI-H23 lung, above 100 µM; in the assay on HT29 colon, 8.42 µM; in the assay on NCI-H522 lung, above 100 µM.
Turning to `NC1C2(CCCCCC2)NC(=O)C12CCCCCC2` (centres undefined), the TGI in the assay on NCI-H460 lung, in the assay on CCRF-CEM leukemia, with SF-268 CNS, in the assay on LOX IMVI melanoma, in the assay with HOP-62 NSCLC and with A498 renal was above 100 µM throughout. The TGI in the assay with ACHN renal, with NCI-H23 lung, with HT29 colon and in the assay with NCI-H522 lung was above 100 µM throughout.
`CC(=O)c1ccc(NC(=O)/C(Cc2ccccn2)=N/NC(=O)C[N+](C)(C)C)cc1`: the TGI in the assay with NCI-H460 lung, in the assay with CCRF-CEM leukemia, in the assay with SF-268 CNS, in the assay with LOX IMVI melanoma, with HOP-62 NSCLC and in the assay with A498 renal was above 100 µM in each case. Besides, the TGI with ACHN renal, in the assay on NCI-H23 lung, in the assay on HT29 colon and in the assay on NCI-H522 lung was above 100 µM in each case.
With `CCCNC(=S)N/N=C(\C)c1ccccn1`, the GI50 was 0.242 µM with NCI-H460 lung; 0.018 µM in the assay on CCRF-CEM leukemia; 0.226 µM in the assay on SF-268 CNS; 0.0436 µM in the assay with LOX IMVI melanoma; 0.517 µM with HOP-62 NSCLC; 0.435 µM in the assay with A498 renal. Also, the GI50 with ACHN renal is 0.0394 µM; in the assay on NCI-H23 lung, 0.022 µM; in the assay with HT29 colon, below 0.0127 µM; in the assay with NCI-H522 lung, 3.22 µM. Further, the TGI in the assay on NCI-H460 lung was 4.92 µM; with CCRF-CEM leukemia, above 100 µM; in the assay with SF-268 CNS, above 51.1 µM; in the assay with LOX IMVI melanoma it was above 100 µM; in the assay with HOP-62 NSCLC, 17.6 µM; in the assay on A498 renal, 4.83 µM. The TGI in the assay with ACHN renal, in the assay with NCI-H23 lung, with HT29 colon and in the assay with NCI-H522 lung was above 100 µM throughout.
As to `CC[C@H](C)[C@H](NC(=O)[C@H]1CCCCN1C)C(=O)N(C)[C@H](CCc1nc(C(=O)N[C@@H](Cc2ccccc2)C[C@H](C)C(=O)OC)cs1)C(C)C`, the GI50 in the assay on NCI-H460 lung was 0.395 µM; with CCRF-CEM leukemia, 0.265 µM; with SF-268 CNS, 1.03 µM; in the assay with LOX IMVI melanoma it was 0.353 µM; with HOP-62 NSCLC it was 0.777 µM; with A498 renal it was 0.14 µM. Moreover, the GI50 in the assay with ACHN renal was 1.75 µM; in the assay on NCI-H23 lung, 0.866 µM; in the assay with HT29 colon, 0.202 µM; in the assay with NCI-H522 lung, 0.0446 µM. Besides, the TGI was above 10.3 µM in the assay with NCI-H460 lung; above 25 µM in the assay with CCRF-CEM leukemia; above 25 µM in the assay with SF-268 CNS; above 25 µM in the assay with LOX IMVI melanoma; above 22.9 µM with HOP-62 NSCLC; 2.75 µM in the assay with A498 renal. In addition, the TGI with ACHN renal was above 25 µM; in the assay on NCI-H23 lung it was above 25 µM; in the assay on HT29 colon it was 3.06 µM; with NCI-H522 lung, 0.143 µM.
On to `O=C(NC1CCCCCC1)C1C(=O)N(C2CCCCCC2)C(=O)/C1=N\O` (centres undefined), for which the TGI was above 100 µM in the assay with NCI-H460 lung; 87.2 µM in the assay with CCRF-CEM leukemia; above 100 µM in the assay on SF-268 CNS; above 100 µM in the assay on LOX IMVI melanoma; 36.5 µM in the assay with HOP-62 NSCLC; 80.4 µM in the assay with A498 renal. Besides, the TGI in the assay on ACHN renal is above 100 µM; in the assay with NCI-H23 lung, 93.1 µM; in the assay with HT29 colon it was 94.2 µM; with NCI-H522 lung, 45 µM.
Take `O=C(O)C1C(C(=O)O)C(C(=O)O)C1C(=O)O` (centres undefined): the TGI with NCI-H460 lung, with CCRF-CEM leukemia, in the assay with SF-268 CNS, in the assay with LOX IMVI melanoma, in the assay on HOP-62 NSCLC and with A498 renal was above 100 µM throughout. Further, the TGI in the assay with ACHN renal, in the assay on NCI-H23 lung, in the assay on HT29 colon and in the assay with NCI-H522 lung was above 100 µM in each case.
